Data: patent publication US20180177753A1, “GLYCERYL 3-HYDROXYBUTYRATES FOR MIGRAINE SYMPTOM MANAGEMENT” (NeuroEnergy Ventures, Inc., priority 2016, published 2018)

Columns and labels:
Format in all cases: in vivo
[1] = Preventive administration before an expected migraine in a subject with chronic repetitive migraine; settings: 70 kg male of Example 2, 20 g 3 times a day, days 90 to 130, started about 5-6 days before expected onset
Text: The subject of Example 2 discontinues the administration after 35 days, is migraine free for two months and a further episode occurs and Example 2 is followed again, counting the start of this second migraine as day 1, except that after ceasing the administration on day 35, the subject begins administration again on day 90 (about 5-6 days before an expected onset of a further migraine based on this subject's history) and continues administration for an additional 40 days (that is for days 90 to 130).

[2] = Self-administration at onset of prodromal visual disturbances in a subject with episodic migraines; settings: 60 kg female, 15 g orally within minutes of visual disturbances, 3 times a day for 4 days
Text: A 60 kg person presents with episodic migraines occurring one such headache occurring and then not again for a number of months. At each event, shortly before the headache begins, the subject has visual disturbances classic of migraine. The subject is requested to self-administer 15 grams of glyceryl tris(3-hydroxybutyrate) upon noticing the next time visual disturbance of this type appear and continue to do so 3 times a day for 4 days. The subject notices such symptoms, and ingests 15 g of glyceryl tris(3-hydroxybutyrate) within minutes of noticing the symptoms.

[3] = Self-administration at migraine onset in subjects with chronic repetitive migraine; settings: 70 kg male, 20 g at migraine onset, 3 times a day for 35 days
Text: There is no known or suspect event triggering these events. The subject is instructed to self-administer 20 g of glyceryl tris(3-hydroxybutyrate) upon the onset of the migraine and to continue to self-administer at this dosage 3 times a day for 35 days.
A 60 kg person presents with chronic repetitive migraine with a similar repetitive pattern to the subject of Examples 2 and 3. They are instructed to self-administer 15 g of glyceryl tris(3-hydroxybutyrate) upon the onset of the migraine, rather than the 20 g as in Examples 2 and 3, but otherwise to follow the regimen in Examples 2 and 3.

## CC(O)CC(=O)OCC(COC(=O)CC(C)O)OC(=O)CC(C)O (stereo not shown) [glyceryl tris(3-hydroxybutyrate)]
[1]
  occurrence of the expected migraine (days 94-95) during the administration period: no such migraine appears
[2]
  duration of the headache that follows, versus past episodes: lesser duration
  intensity of the headache that follows, versus past episodes: lesser intensity
[3]
  duration of the usual initial migraine, versus past history: shorter duration
  frequency of the repetitive migraines, versus past history: further reduced in frequency
  intensity of the repetitive migraines, versus past history: further reduced in frequency and intensity
  severity of the usual initial migraine, versus past history: less severe
